Results reported in patent publication EP0527889B1, “QUINOLIZINONE TYPE COMPOUNDS” (priority 1990, dated 1991).
Values after ≈ are worked out from the molar mass of the structure shown.

Columns and labels:
Assay in all cases: In vitro antibacterial activity, MIC by agar dilution
Type in all cases: cell-based
Settings in all cases: BHI agar, 35-37°C, 20-24 hours, unit assumed
[1] = tested on: Staphylococcus aureus A-5278
Experimental: (§1) Each plate was inoculated with 1:100 (or 1:10 for slow growing strains, primarily Micrococcus and Streptococcus) dilutions of up to 32 different microorganisms, using a Steers replicator block calibrated to deliver approximately 10^4 colony forming units (CFUs). The inoculated plates were incubated at from about 35°C to about 37°C for approximately 20-24 hours. In addition, a control plate using BHI agar containing no test compound was prepared and incubated at the beginning and at the end of each test. Ciprofloxacin was used as the control antibiotic.
(§2) The MIC was defined as the lowest concentration of test compound yielding no growth (a slight haze or sparsely isolated colonies at the inoculum spot) as compared to the growth control containing no test compound.

Pseudomonas cepacia 296I = tested on: Pseudomonas cepacia 296I
Experimental: as §1, §2

[2] = tested on: Staphylococcus aureus A5177
Experimental: as §1, §2

Escherichia coli H560 = tested on: Escherichia coli H560
Experimental: as §1, §2

[3] = tested on: Staphylococcus aureus 1775
Experimental: as §1, §2

Escherichia coli DC-2 = tested on: Escherichia coli DC-2
Experimental: as §1, §2

[4] = tested on: Enterococcus faecium ATCC 8043
Experimental: as §1, §2

[5] = tested on: Pseudomonas aeruginosa BMH10
Experimental: as §1, §2

[6] = tested on: Pseudomonas aeruginosa 2862
Experimental: as §1, §2

[7] = tested on: Staphylococcus aureus CMX 553
Experimental: as §1, §2

[8] = tested on: Pseudomonas aeruginosa K799/WT
Experimental: as §1, §2

[9] = tested on: Staphylococcus aureus 642A
Experimental: as §1, §2

Escherichia coli SS = tested on: Escherichia coli SS
Experimental: as §1, §2

[10] = tested on: Streptococcus pyrogenes 2548 INDUC
Experimental: as §1, §2

[11] = tested on: Staphylococcus epidermidis 3519
Experimental: as §1, §2

[12] = tested on: Acinetobacter calcoaceticus CMX 669
Experimental: as §1, §2

[13] = tested on: Micrococcus luteus ATCC 9341
Experimental: as §1, §2

Escherichia coli JUHL = tested on: Escherichia coli JUHL
Experimental: as §1, §2

[14] = tested on: Staphylococcus aureus NCTC 10649
Experimental: as §1, §2

[15] = tested on: Staphylococcus aureus ATCC 6538P
Experimental: as §1, §2

[16] = tested on: Streptococcus bovis A5169
Experimental: as §1, §2

[17] = tested on: Pseudomonas aeruginosa 5263
Experimental: as §1, §2

[18] = tested on: Streptococcus pyrogenes CONST
Experimental: as §1, §2

[19] = tested on: Streptococcus pyrogenes EES61
Experimental: as §1, §2

[20] = tested on: Streptococcus agalactaciae CMX 508
Experimental: as §1, §2

[21] = tested on: Pseudomonas aeruginosa A5007
Experimental: as §1, §2

[22] = tested on: Micrococcus luteus ATCC 4698
Experimental: as §1, §2

[23] = tested on: Enterobacter aerogenes ATCC 13048
Experimental: as §1, §2

[24] = tested on: Providencia stuartii CMX 640
Experimental: as §1, §2

Escherichia coli KNK 437 = tested on: Escherichia coli KNK 437
Experimental: as §1, §2

[25] = tested on: Pseudomonas aeruginosa K799/61
Experimental: as §1, §2

[26] = tested on: Klebsiella pneumoniae ATCC 8045
Experimental: as §1, §2

## CN1CCN(c2nc3c(C4CC4)cc(C(=O)O)c(=O)n3cc2F)CC1 [Example 163, 9-Cyclopropyl-3-fluoro-2-(4-methylpiperazin-1-yl)-6H-6-oxo-pyrido[1,2-a]pyrimidine-7-carboxylic acid]
[1]
  MIC values: 1.56 µg/mL (≈ 4.5 µM)
Pseudomonas cepacia 296I
  MIC values: 12.5 µg/mL (≈ 36.1 µM)
[2]
  MIC values: 1.56 µg/mL (≈ 4.5 µM)
Escherichia coli H560
  MIC values: 0.1 µg/mL (≈ 0.289 µM)
[3]
  MIC values: 100 µg/mL (≈ 289 µM)
Escherichia coli DC-2
  MIC values: 6.2 µg/mL (≈ 17.9 µM)
[4]
  MIC values: 12.5 µg/mL (≈ 36.1 µM)
[5]
  MIC values: 1.56 µg/mL (≈ 4.5 µM)
[6]
  MIC values: > 100 µg/mL
[7]
  MIC values: 1.56 µg/mL (≈ 4.5 µM)
[8]
  MIC values: 3.1 µg/mL (≈ 8.95 µM)
[9]
  MIC values: 1.56 µg/mL (≈ 4.5 µM)
Escherichia coli SS
  MIC values: 0.1 µg/mL (≈ 0.289 µM)
[10]
  MIC values: 12.5 µg/mL (≈ 36.1 µM)
[11]
  MIC values: 1.56 µg/mL (≈ 4.5 µM)
[12]
  MIC values: 0.39 µg/mL (≈ 1.13 µM)
[13]
  MIC values: 25 µg/mL (≈ 72.2 µM)
Escherichia coli JUHL
  MIC values: 0.2 µg/mL (≈ 0.577 µM)
[14]
  MIC values: 0.78 µg/mL (≈ 2.25 µM)
[15]
  MIC values: 1.56 µg/mL (≈ 4.5 µM)
[16]
  MIC values: 50 µg/mL (≈ 144 µM)
[17]
  MIC values: 100 µg/mL (≈ 289 µM)
[18]
  MIC values: 12.5 µg/mL (≈ 36.1 µM)
[19]
  MIC values: 12.5 µg/mL (≈ 36.1 µM)
[20]
  MIC values: 12.5 µg/mL (≈ 36.1 µM)
[21]
  MIC values: 3.1 µg/mL (≈ 8.95 µM)
[22]
  MIC values: 12.5 µg/mL (≈ 36.1 µM)
[23]
  MIC values: 0.39 µg/mL (≈ 1.13 µM)
[24]
  MIC values: 50 µg/mL (≈ 144 µM)
Escherichia coli KNK 437
  MIC values: 3.1 µg/mL (≈ 8.95 µM)
[25]
  MIC values: 1.56 µg/mL (≈ 4.5 µM)
[26]
  MIC values: 0.1 µg/mL (≈ 0.289 µM)

## O=C(O)c1cc(C2CC2)c2nc(N3CCNCC3)c(F)cn2c1=O [Example 164, 9-Cyclopropyl-3-fluoro-2-(piperazin-1-yl)-6H-6-oxo-pyrido[1,2-a]pyrimidine-7-carboxylic acid]
[1]
  MIC values: 1.56 µg/mL (≈ 4.69 µM)
Pseudomonas cepacia 296I
  MIC values: 3.1 µg/mL (≈ 9.33 µM)
[2]
  MIC values: 1.56 µg/mL (≈ 4.69 µM)
Escherichia coli H560
  MIC values: 0.1 µg/mL (≈ 0.301 µM)
[3]
  MIC values: 50 µg/mL (≈ 150 µM)
Escherichia coli DC-2
  MIC values: 1.56 µg/mL (≈ 4.69 µM)
[4]
  MIC values: 12.5 µg/mL (≈ 37.6 µM)
[5]
  MIC values: 0.39 µg/mL (≈ 1.17 µM)
[6]
  MIC values: 100 µg/mL (≈ 301 µM)
[7]
  MIC values: 1.56 µg/mL (≈ 4.69 µM)
[8]
  MIC values: 0.39 µg/mL (≈ 1.17 µM)
[9]
  MIC values: 1.56 µg/mL (≈ 4.69 µM)
Escherichia coli SS
  MIC values: 0.02 µg/mL (≈ 0.0602 µM)
[10]
  MIC values: 12.5 µg/mL (≈ 37.6 µM)
[11]
  MIC values: 1.56 µg/mL (≈ 4.69 µM)
[12]
  MIC values: 0.39 µg/mL (≈ 1.17 µM)
[13]
  MIC values: 12.5 µg/mL (≈ 37.6 µM)
Escherichia coli JUHL
  MIC values: 0.05 µg/mL (≈ 0.15 µM)
[14]
  MIC values: 1.56 µg/mL (≈ 4.69 µM)
[15]
  MIC values: 0.78 µg/mL (≈ 2.35 µM)
[16]
  MIC values: 12.5 µg/mL (≈ 37.6 µM)
[17]
  MIC values: 100 µg/mL (≈ 301 µM)
[18]
  MIC values: 12.5 µg/mL (≈ 37.6 µM)
[19]
  MIC values: 12.5 µg/mL (≈ 37.6 µM)
[20]
  MIC values: 12.5 µg/mL (≈ 37.6 µM)
[21]
  MIC values: 0.39 µg/mL (≈ 1.17 µM)
[22]
  MIC values: 6.2 µg/mL (≈ 18.7 µM)
[23]
  MIC values: 0.05 µg/mL (≈ 0.15 µM)
[24]
  MIC values: 12.5 µg/mL (≈ 37.6 µM)
Escherichia coli KNK 437
  MIC values: 1.56 µg/mL (≈ 4.69 µM)
[25]
  MIC values: 0.1 µg/mL (≈ 0.301 µM)
[26]
  MIC values: 0.05 µg/mL (≈ 0.15 µM)
